# Test results from the supplement of paper PMC10307832.
# What was measured:
# Test in all cases: relative viability (nuclei count vs DMSO), 5 days (fraction); higher = more cells survive
# KIN001-266 + OSI-027 = compound: CCN1CCC(CC1)N2C=C(N=N2)CNC3=CC4=C(C(=CN=C4C(=C3)Cl)C#N)NC5=CC(=C(C=C5)F)Cl [KIN001-266] + COc1cccc2cc(-c3nc([C@H]4CC[C@H](C(=O)O)CC4)n4ncnc(N)c34)[nH]c12 [OSI-027] (partner 0.5 µM)
# How it was run: (§1)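 Lung cancer cell lines, seeded in 1536-well plates, were treated the following day by pin tool with a single drug or with five library-drug doses (not always all listed) in √10 steps on top of a fixed anchor-drug dose. Cells were fixed and nuclei stained in one step after 5 days, and nuclei were counted. Relative viability is the nuclei count for treated wells divided by that for vehicle wells, reported as medians of duplicate plates.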
# KIN001-266 + Crizotinib = compound: CCN1CCC(CC1)N2C=C(N=N2)CNC3=CC4=C(C(=CN=C4C(=C3)Cl)C#N)NC5=CC(=C(C=C5)F)Cl [KIN001-266] + C[C@@H](Oc1cc(-c2cnn(C3CCNCC3)c2)cnc1N)c1c(Cl)ccc(F)c1Cl [Crizotinib] (partner 1 µM)
# How it was run: as §1
# KIN001-266 + Linsitinib = compound: CCN1CCC(CC1)N2C=C(N=N2)CNC3=CC4=C(C(=CN=C4C(=C3)Cl)C#N)NC5=CC(=C(C=C5)F)Cl [KIN001-266] + C[C@]1(O)C[C@@H](c2nc(-c3ccc4ccc(-c5ccccc5)nc4c3)c3c(N)nccn32)C1 [Linsitinib] (partner 1 µM)
# How it was run: as §1
# KIN001-266 + Tozasertib = compound: CCN1CCC(CC1)N2C=C(N=N2)CNC3=CC4=C(C(=CN=C4C(=C3)Cl)C#N)NC5=CC(=C(C=C5)F)Cl [KIN001-266] + Cc1cc(Nc2cc(N3CCN(C)CC3)nc(Sc3ccc(NC(=O)C4CC4)cc3)n2)n[nH]1 [Tozasertib] (partner 0.1 µM)
# How it was run: as §1
Cell Line,relative viability (KIN001-266 + OSI-027; first compound 0.08 µM),relative viability (KIN001-266 + OSI-027; first compound 0.253 µM),relative viability (KIN001-266 + OSI-027; first compound 0.8 µM),relative viability (KIN001-266 + OSI-027; first compound 2.53 µM),relative viability (KIN001-266 + OSI-027; first compound 8 µM),relative viability (KIN001-266 + Crizotinib; first compound 0.08 µM),relative viability (KIN001-266 + Crizotinib; first compound 0.253 µM),relative viability (KIN001-266 + Crizotinib; first compound 0.8 µM),relative viability (KIN001-266 + Crizotinib; first compound 2.53 µM),relative viability (KIN001-266 + Crizotinib; first compound 8 µM),relative viability (KIN001-266 + Linsitinib; first compound 0.08 µM),relative viability (KIN001-266 + Linsitinib; first compound 0.253 µM),relative viability (KIN001-266 + Linsitinib; first compound 0.8 µM),relative viability (KIN001-266 + Linsitinib; first compound 2.53 µM),relative viability (KIN001-266 + Linsitinib; first compound 8 µM),relative viability (KIN001-266 + Tozasertib; first compound 0.08 µM),relative viability (KIN001-266 + Tozasertib; first compound 0.253 µM),relative viability (KIN001-266 + Tozasertib; first compound 0.8 µM),relative viability (KIN001-266 + Tozasertib; first compound 2.53 µM),relative viability (KIN001-266 + Tozasertib; first compound 8 µM)
NCI-H441,0.829,0.695,0.585,0.563,0.479,0.86,0.874,0.756,0.775,0.665,0.7,0.454,0.456,0.565,0.59,0.75,0.737,0.557,0.56,0.261
NCI-H1793,0.332,0.254,0.231,0.258,0.204,–,–,–,–,–,0.806,0.829,0.75,0.879,1.03,0.325,0.416,0.303,0.323,0.272
NCI-H23,0.651,0.618,0.541,0.398,0.485,0.583,0.523,0.41,0.496,0.448,0.626,0.604,0.591,0.691,0.55,0.359,0.381,0.376,0.41,0.271
HARA,0.559,0.644,0.395,0.501,0.276,1.07,1.24,0.894,0.967,0.782,0.863,0.851,0.925,0.935,0.735,0.124,0.13,0.102,0.0995,0.0873
NCI-H1792,0.772,0.711,0.729,0.732,0.691,0.975,0.898,0.932,0.971,0.968,0.544,0.471,0.515,0.603,0.533,–,–,–,–,–
NCI-H1703,–,–,–,–,–,0.965,0.675,0.63,0.457,0.371,0.786,0.493,1.11,0.488,0.747,–,–,–,–,–
NCI-H2342,0.607,0.626,0.564,0.708,0.754,–,–,–,–,–,–,–,–,–,–,0.524,0.506,0.584,0.627,0.414
CAL-12T,0.696,0.742,0.538,0.508,0.509,0.562,0.565,0.693,0.589,0.686,0.802,0.811,0.774,0.863,0.493,0.345,0.3,0.291,0.312,0.255
NCI-H727,0.646,0.573,0.593,0.541,0.527,0.79,0.812,0.753,0.825,0.405,0.296,0.283,0.237,0.284,0.333,0.759,0.584,0.552,0.715,0.467
NCI-H2085,0.808,0.835,0.582,0.759,0.416,0.867,1.05,0.875,0.794,0.615,0.854,0.986,0.908,0.949,0.793,0.911,0.858,0.83,0.793,0.765
NCI-H1395,0.719,0.761,0.715,0.594,0.591,–,–,–,–,–,1.06,1.02,1.19,1.11,0.949,0.808,0.779,0.786,0.724,0.677
NCI-H1648,0.28,0.256,0.273,0.257,0.273,–,–,–,–,–,–,–,–,–,–,0.711,0.513,0.436,0.558,0.485
NCI-H460,0.623,0.667,0.781,0.605,0.574,1.01,0.872,1.12,0.808,0.67,0.673,0.853,0.899,0.762,0.539,0.553,0.423,0.333,0.54,0.121
A549,–,–,–,–,–,0.771,0.733,0.83,0.739,0.693,0.604,0.55,0.562,0.668,0.592,–,–,–,–,–
IA-LM,–,–,–,–,–,0.885,0.748,0.693,0.753,0.585,0.51,0.435,0.58,0.584,0.641,–,–,–,–,–
EKVX,0.702,0.706,0.683,0.685,0.52,0.893,0.933,0.894,0.899,0.894,1.01,0.956,1.04,0.963,1.04,0.319,0.376,0.374,0.392,0.409
ChaGo-K-1,0.657,0.551,0.553,0.647,0.459,1.09,1.12,–,1.09,0.982,–,–,–,–,–,0.245,0.218,0.213,0.207,0.198
SW 900,0.738,0.366,0.551,0.485,0.325,–,–,–,–,–,–,–,–,–,–,0.741,0.584,0.567,0.482,0.491
NCI-H1755,0.74,0.739,0.679,0.723,0.651,0.942,0.798,0.836,0.826,0.718,1,0.973,0.965,0.955,0.844,0.629,0.541,0.583,0.525,0.522
